Results from ChEMBL document CHEMBL5523716, “Discovery of novel EGFR-PROTACs capable of degradation of multiple EGFR-mutated proteins” (Eur J Med Chem, 2024).
Calls of active or inactive are those of the source. No cut-off for these calls is given here.

Assays:
[1] = Metabolic stability in monkey liver microsomes assessed as half-life at 1 uM incubated upto 60 mins in presence of NADPH by LC-MS/MS analysis; assay type: ADME, Macaca mulatta, Microsome; details: rhesus monkey
[2] = test system: NCI-H1975; experiment: Antitumor activity against human NCI-H1975 cells xenografted in BALB/c mouse assessed as increase in EGFR degradation in tumor at 20 mg/kg,ip once daily for 22 days by Western blot analysis relative to control; assay type: functional; details: time 22 day
[3] = test system: von Hippel-Lindau disease tumor suppressor/Epidermal growth factor receptor (Homo sapiens), P00533+P40337 [L858R,T790M,C797S]; experiment: PROTAC activity at VHL/EGFR L858R/T790M/C797S mutant in human H1975-TM cells assessed as induction of EGFR degradation at 100 nM preincubated with MLN-4924 for 6 hrs followed by compound treatment for 48 hrs by Western blot analysis; assay type: cell-based
[4] = test system: von Hippel-Lindau disease tumor suppressor/Epidermal growth factor receptor (Homo sapiens), P00533+P40337 [L858R,T790M,C797S]; experiment: PROTAC activity at VHL/EGFR L858R/T790M/C797S mutant in human H1975-TM cells assessed as downregulation of ERK phosphorylation incubated for 48 hrs by Western blot analysis; assay type: cell-based
[5] = test system: HCC827; experiment: Antiproliferative activity against human HCC827 cells harboring EGFR Del19 mutant assessed as inhibition of cell growth incubated for 48 to 72 hrs by CCK-8 assay; assay type: functional, cell-based
[6] = Metabolic stability in dog liver microsomes assessed as elimination rate constant at 1 uM incubated upto 60 mins in presence of NADPH by LC-MS/MS analysis; assay type: ADME, Canis lupus familiaris, Microsome
[7] = test system: von Hippel-Lindau disease tumor suppressor/Epidermal growth factor receptor (Homo sapiens), P00533+P40337 [UNDEFINED MUTATION]; experiment: PROTAC activity at VHL/EGFR Del19 mutant in human HCC827 cells assessed as induction of EGFR degradation at 100 nM preincubated with MLN-4924 for 6 hrs followed by compound treatment for 48 hrs by Western blot analysis; assay type: cell-based
[8] = test system: von Hippel-Lindau disease tumor suppressor/Epidermal growth factor receptor (Homo sapiens), P00533+P40337 [L858R,T790M]; experiment: PROTAC activity at VHL/EGFR L858R/T790M mutant in human NCI-H1975 cells assessed as downregulation of AKT phosphorylation incubated for 72 hrs by Western blot analysis; assay type: cell-based
[9] = Half life in SPF ICR mouse at 5 mg/kg,ip measured upto 24 hrs by LC-MS/MS analysis; assay type: ADME, organism-based; details: in vivo
[10] = Metabolic stability in human liver microsomes assessed as intrinsic clearance at 1 uM incubated upto 60 mins in presence of NADPH by LC-MS/MS analysis; assay type: ADME, Microsome; details: read-out: CLH
[11] = test system: von Hippel-Lindau disease tumor suppressor/Epidermal growth factor receptor (Homo sapiens), P00533+P40337 [L858R,T790M,C797S]; experiment: PROTAC activity at VHL/EGFR L858R/T790M/C797S mutant in human H1975-TM cells assessed as downregulation of AKT phosphorylation incubated for 48 hrs by Western blot analysis; assay type: cell-based
[12] = test system: von Hippel-Lindau disease tumor suppressor/Epidermal growth factor receptor (Homo sapiens), P00533+P40337 [UNDEFINED MUTATION]; experiment: PROTAC activity at VHL/EGFR Del19 mutant in human HCC827 cells assessed as downregulation of AKT phosphorylation incubated for 72 hrs by Western blot analysis; assay type: cell-based
[13] = test system: HCC827; experiment: Antitumor activity against human HCC827 cells xenografted in BALB/c mouse assessed as tumor growth inhibition at 2.5 mg/kg,ip once daily for 28 days relative to control; assay type: functional; details: HCC827, 672 h, time 28 day, read-out: TGI
[14] = test system: H1975-TM; experiment: Antitumor activity against human H1975-TM cells xenografted in BALB/c mouse assessed as increase in EGFR degradation in tumor at 5 to 20 mg/kg,ip once daily for 14 days by Western blot analysis; assay type: functional, organism-based; details: dose 5-20 mg/kg, time 14.0 day
[15] = test system: von Hippel-Lindau disease tumor suppressor/Epidermal growth factor receptor (Homo sapiens), P00533+P40337 [L858R,T790M,C797S]; experiment: PROTAC activity at VHL/EGFR L858R/T790M/C797S mutant in human H1975-TM cells assessed as maximal EGFR degradation at 0.03 to 2.5 uM incubated for 48 hrs by Western blot analysis relative to control; assay type: cell-based; details: dose 0.03-2.5 µM
[16] = Metabolic stability in monkey liver microsomes assessed as intrinsic clearance at 1 uM incubated upto 60 mins in presence of NADPH by LC-MS/MS analysis; assay type: ADME, Macaca mulatta, Microsome; details: rhesus monkey, read-out: CLH
[17] = test system: HCC827; experiment: Antitumor activity against human HCC827 cells xenografted in BALB/c mouse assessed as increase in EGFR degradation in tumor at 1.25 to 5 mg/kg,ip once daily for 28 days by Western blot analysis; assay type: functional, organism-based; details: dose 1.25-5 mg/kg, time 28.0 day
[18] = test system: von Hippel-Lindau disease tumor suppressor/Epidermal growth factor receptor (Homo sapiens), P00533+P40337 [L858R,T790M,C797S]; experiment: PROTAC activity at VHL/EGFR L858R/T790M/C797S mutant in human H1975-TM cells assessed as induction of EGFR degradation at 100 nM preincubated with MG-132 for 6 hrs followed by compound treatment for 48 hrs by Western blot analysis; assay type: cell-based
[19] = test system: von Hippel-Lindau disease tumor suppressor/Epidermal growth factor receptor (Homo sapiens), P00533+P40337 [UNDEFINED MUTATION]; experiment: PROTAC activity at VHL/EGFR Del19 mutant in human HCC827 cells assessed as maximal EGFR degradation at 1.56 to 100 nM incubated for 72 hrs by Western blot analysis relative to control; assay type: cell-based; details: dose 1.56-100 nM
[20] = Metabolic stability in mouse liver microsomes assessed as elimination rate constant at 1 uM incubated upto 60 mins in presence of NADPH by LC-MS/MS analysis; assay type: ADME, Microsome
[21] = test system: NCI-H1975; experiment: Antitumor activity against human NCI-H1975 cells xenografted in BALB/c mouse assessed as tumor growth inhibition at 5 mg/kg,ip once daily for 22 days relative to control; assay type: functional; details: NCI-H1975, 528 h, time 22 day, read-out: TGI
[22] = MRT (0 to t) in SPF ICR mouse at 5 mg/kg,ip measured upto 24 hrs by LC-MS/MS analysis; assay type: ADME, organism-based; details: in vivo
[23] = Antitumor activity against human H1975-TM cells xenografted in BALB/c mouse assessed as tumor growth inhibition at 20 mg/kg,ip once daily for 14 days relative to control; assay type: functional; details: 336 h, time 14 day, read-out: TGI
[24] = Metabolic stability in mouse liver microsomes assessed as intrinsic clearance at 1 uM incubated upto 60 mins in presence of NADPH by LC-MS/MS analysis; assay type: ADME, Microsome; details: read-out: CLH
[25] = Toxicity in BALB/c mouse xenografted with human HCC827 cells assessed as change in body weight at 1.25 to 5 mg/kg,ip once daily for 28 days; assay type: organism-based; details: in vivo, 672 h, dose 1.25-5 mg/kg, time 28 day
[26] = test system: von Hippel-Lindau disease tumor suppressor/Epidermal growth factor receptor (Homo sapiens), P00533+P40337 [L858R,T790M,C797S]; experiment: PROTAC activity at VHL/EGFR L858R/T790M/C797S mutant in human H1975-TM cells assessed as downregulation of EGFR phosphorylation incubated for 48 hrs by Western blot analysis; assay type: cell-based
[27] = biological target: Voltage-gated inwardly rectifying potassium channel KCNH2 (Homo sapiens, UniProt Q12809); experiment: Inhibition of hERG expressed in CHO cells at 0.3 to 30 uM incubated for 24 to 48 hrs by voltage clamp electrophysiology; assay type: toxicity, cell-based; details: dose lower 0.3 µM, time lower 24 hrs, dose upper 30 µM, time upper 48 hrs
Sequence of Voltage-gated inwardly rectifying potassium channel KCNH2 (Q12809 whole entry): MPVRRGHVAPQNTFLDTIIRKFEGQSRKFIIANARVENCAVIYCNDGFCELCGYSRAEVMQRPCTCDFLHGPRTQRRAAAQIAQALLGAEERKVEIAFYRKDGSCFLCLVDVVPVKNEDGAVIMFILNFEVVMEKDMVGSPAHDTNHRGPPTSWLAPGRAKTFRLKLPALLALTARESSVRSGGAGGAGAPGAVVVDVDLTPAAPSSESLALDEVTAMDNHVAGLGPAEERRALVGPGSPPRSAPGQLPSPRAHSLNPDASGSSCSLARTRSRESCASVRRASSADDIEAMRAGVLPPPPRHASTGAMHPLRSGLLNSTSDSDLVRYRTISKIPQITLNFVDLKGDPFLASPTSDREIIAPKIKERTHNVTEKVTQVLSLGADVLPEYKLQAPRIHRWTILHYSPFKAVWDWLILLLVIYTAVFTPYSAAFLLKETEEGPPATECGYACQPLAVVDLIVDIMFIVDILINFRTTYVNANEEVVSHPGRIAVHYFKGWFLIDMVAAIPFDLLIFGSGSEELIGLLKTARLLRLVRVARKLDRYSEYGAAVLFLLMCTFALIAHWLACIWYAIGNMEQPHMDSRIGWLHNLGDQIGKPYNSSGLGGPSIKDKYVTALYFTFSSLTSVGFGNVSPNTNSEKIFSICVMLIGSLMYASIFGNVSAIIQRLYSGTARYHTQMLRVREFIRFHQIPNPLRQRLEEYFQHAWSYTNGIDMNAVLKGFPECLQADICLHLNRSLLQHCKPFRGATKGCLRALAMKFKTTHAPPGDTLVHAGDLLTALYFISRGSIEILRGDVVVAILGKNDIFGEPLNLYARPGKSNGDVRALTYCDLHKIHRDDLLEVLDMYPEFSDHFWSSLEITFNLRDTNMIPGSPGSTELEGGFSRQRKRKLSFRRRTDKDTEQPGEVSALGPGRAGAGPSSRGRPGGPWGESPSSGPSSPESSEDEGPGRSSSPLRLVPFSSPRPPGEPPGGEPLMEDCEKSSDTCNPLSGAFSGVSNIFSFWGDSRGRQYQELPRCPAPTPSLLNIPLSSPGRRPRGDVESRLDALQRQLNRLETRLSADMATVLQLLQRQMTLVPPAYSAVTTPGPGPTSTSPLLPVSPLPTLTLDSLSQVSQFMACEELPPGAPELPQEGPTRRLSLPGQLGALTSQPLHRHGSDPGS

[28] = test system: HCC827; experiment: Antitumor activity against human HCC827 cells xenografted in BALB/c mouse assessed as tumor growth inhibition at 1.25 mg/kg,ip once daily for 28 days relative to control; assay type: functional; details: HCC827, 672 h, time 28 day, read-out: TGI

## CCN(CC)C/C=C/C(=O)Nc1cc2c(Nc3ccc(F)c(Cl)c3)ncnc2cc1OCc1cn(CCCCCCCC(=O)N[C@H](C(=O)N2C[C@H](O)C[C@H]2C(=O)N[C@H](C)c2ccc(-c3scnc3C)cc2)C(C)(C)C)nn1
[1]
  half-life at 1 µM: 37.9 min
[2]
  Activity: >75%
[3]
  Activity: inactive
[4]
  Activity: Dose-Dependent Effect
[5]
  IC50: 9 nM
[6]
  k el at 1 h, 1 µM: 0.00015 s⁻¹
[7]
  Activity: inactive
[8]
  Activity: Dose-Dependent Effect
[9]
  half-life: 57.6 min
[10]
  microsomal CLint at 1 µM: 84 µL/min/mg
[11]
  Activity: Dose-Dependent Effect
[12]
  Activity: Dose-Dependent Effect
[13]
  inhibition in vivo at 2.5 mg/kg: 67%
[14]
  Activity: Active
[15]
  Emax: 94%
[16]
  microsomal CLint at 1 µM: 36.6 µL/min/mg
[17]
  Activity: Active
[18]
  Activity: inactive
[19]
  Emax: 100%
[20]
  k el at 1 h, 1 µM: 0.0001 s⁻¹
[21]
  inhibition in vivo at 5 mg/kg: 56%
[22]
  MRT last at 24 h: 172 min
[23]
  inhibition in vivo at 20 mg/kg: 50%
[24]
  microsomal CLint at 1 µM: 11.8 µL/min/mg
[25]
  Activity: Non-Toxic
[26]
  Activity: Dose-Dependent Effect
[27]
  inhibition (INH): Not Active
[28]
  inhibition in vivo at 1.25 mg/kg: 41%
